The values below come from patent publication US4876359A, “Novel gamma-butyrolactone derivatives” (SS Pharmaceutical Co., Ltd., priority 1986, dated 1989).

The first test deals with T1, Angiotensin Converting Enzyme (ACE) (Oryctolagus cuniculus, UniProt P12822).
T1 construct: Lyophilized powder (1 g) of rabbit lungs (product of Pel-Freez Biologicals Company) was extracted; tissue Pel-Freez Biologicals Company; host or cells: rabbit lungs, lyophilized powder; 40,000 g supernatant of a phosphate buffer extract
T1 sequence (P12822 34-1310): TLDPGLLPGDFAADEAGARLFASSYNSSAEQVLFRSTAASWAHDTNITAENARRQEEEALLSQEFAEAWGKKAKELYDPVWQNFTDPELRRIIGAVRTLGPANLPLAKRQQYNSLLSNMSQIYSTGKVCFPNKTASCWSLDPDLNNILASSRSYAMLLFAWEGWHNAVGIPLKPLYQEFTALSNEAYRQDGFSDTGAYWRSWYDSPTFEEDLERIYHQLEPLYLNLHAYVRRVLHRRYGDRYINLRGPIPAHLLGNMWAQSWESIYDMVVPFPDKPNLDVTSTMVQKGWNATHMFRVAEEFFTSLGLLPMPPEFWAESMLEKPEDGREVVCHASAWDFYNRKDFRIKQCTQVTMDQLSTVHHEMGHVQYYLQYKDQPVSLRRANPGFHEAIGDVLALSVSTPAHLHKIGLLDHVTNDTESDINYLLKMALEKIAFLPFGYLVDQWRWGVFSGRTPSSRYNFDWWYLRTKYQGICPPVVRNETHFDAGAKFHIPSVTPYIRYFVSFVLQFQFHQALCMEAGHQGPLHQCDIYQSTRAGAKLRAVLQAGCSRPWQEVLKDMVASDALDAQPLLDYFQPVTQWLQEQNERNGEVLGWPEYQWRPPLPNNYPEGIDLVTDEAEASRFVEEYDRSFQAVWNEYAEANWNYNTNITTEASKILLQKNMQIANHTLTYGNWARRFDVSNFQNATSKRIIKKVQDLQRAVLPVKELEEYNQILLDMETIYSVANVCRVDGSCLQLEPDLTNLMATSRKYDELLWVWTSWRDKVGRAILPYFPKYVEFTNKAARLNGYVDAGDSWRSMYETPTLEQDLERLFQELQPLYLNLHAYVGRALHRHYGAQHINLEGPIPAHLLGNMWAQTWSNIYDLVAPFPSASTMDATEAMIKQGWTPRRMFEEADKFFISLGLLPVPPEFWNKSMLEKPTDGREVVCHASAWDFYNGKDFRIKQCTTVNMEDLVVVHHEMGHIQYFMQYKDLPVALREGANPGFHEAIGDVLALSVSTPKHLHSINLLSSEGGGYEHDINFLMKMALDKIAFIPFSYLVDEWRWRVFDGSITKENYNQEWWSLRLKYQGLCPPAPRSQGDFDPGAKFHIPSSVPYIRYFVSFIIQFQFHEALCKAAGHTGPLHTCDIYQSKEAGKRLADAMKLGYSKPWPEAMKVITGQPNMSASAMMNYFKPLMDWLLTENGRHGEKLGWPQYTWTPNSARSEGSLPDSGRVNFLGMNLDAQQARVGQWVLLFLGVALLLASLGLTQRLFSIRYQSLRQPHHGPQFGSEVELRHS
The test is described as follows: ACE inhibitory activity (Method 1, rabbit lung enzyme, hippurylglycylglycine). It counts as biochemical. The note with it: pH 8.3, 37° C., 30 minutes, hydrochlorides, read-out: ACE inhibitory activity concentration (IC50). As for the experimental part: (§1) The ACE inhibitory activities of the certain compounds (I) of this invention were determined by measuring their ACE activities in accordance with the method reported by Neels et al. [Clinical Chemistry, 29, 1399 (1983)].
(§2) Lyophilized powder (1 g) of rabbit lungs (product of Pel-Freez Biologicals Company) was extracted with 10 ml of a 50 mM buffer of potassium phosphate (pH 8.3) and a centrifugation supernatant (40,000 g×40 minutes) was used as an enzyme solution. Each test compound was dissolved at a concentration of 1 mg/ml in water, methanol or dimethyl sulfoxide depending on its solubility, followed by dilution with water to provide test solutions.
(§3) Added to 10 μl of each of the test solutions of various concentrations was 100 μl of a mixed reactant (pH 8.3) containing 50 mM of N-2-hydroxyethylpiperazine-N'-2-ethanesulfonic acid (HEPES), 300 mM of NaCl, 400 mM of Na2 SO4 and 30 mM of hippurylglycylglycine, followed by an addition of 10 μl of the enzyme solution to conduct a reaction at 37° C. for 30 minutes. To the reaction mixture, 100 μl of a sodium tungstate solution (100 g/l) and 100 μl of 0.33M sulfuric acid were added to terminate the reaction, followed by a further addition of 1 ml of water. The resultant mixture was centrifuged to collect 750 μl of a supernatant, to which 1 ml of a 100 mM borate buffer (pH 9.6) was added. Added further was 50 μl of a 60 mM solution of sodium 2,4,6-tri-nitrobenzenesulfonate. After warming the mixture at 37° C. for 15 minutes, its absorbance was measured at 420 nm. The inhibition rates at the various concentrations were calculated and IC50 was then determined by a method known per se in the art.
Take `CCCCCCC1CC(N[C@@H](C)C(=O)N2CCC[C@H]2C(=O)O)C(=O)O1` (single isomer, unassigned) [Compound 14, N-(2-oxo-5-hexyl-3-tetrahydrofuranyl)-L-alanyl-L-proline]: the IC50 is 7 nM.
Still for that read-out and setting: the same measure for `CCCCCC1CC(N[C@@H](C)C(=O)N2CCC[C@H]2C(=O)O)C(=O)O1` (single isomer, unassigned) [Compound 19, N-(2-oxo-5-pentyl-3-tetrahydrofuranyl)-L-alanyl-L-proline]: 7.3 nM.
Take `CCCCCCCC1CC(N[C@@H](C)C(=O)N2CCC[C@H]2C(=O)O)C(=O)O1` (single isomer, unassigned) [Compound 20, N-(2-oxo-5-heptyl-3-tetrahydrofuranyl)-L-alanyl-L-proline]: the IC50 is 5.8 nM.
On to `CCCCCCCCC1CC(N[C@@H](C)C(=O)N2CCC[C@H]2C(=O)O)C(=O)O1` (single isomer, unassigned) [Compound 21, N-(2-oxo-5-octyl-3-tetrahydrofuranyl)-L-alanyl-L-proline], for which the IC50 is 2.9 nM.
Turning to `CCCCCCCCCCC1CC(N[C@@H](C)C(=O)N2CCC[C@H]2C(=O)O)C(=O)O1` (single isomer, unassigned) [Compound 22, N-(2-oxo-5-decanyl-3-tetrahydrofuranyl)-L-alanyl-L-proline], the IC50 worked out at 3 nM.
On to `C[C@H](N[C@H]1CC(c2ccccc2)OC1=O)C(=O)N1CCC[C@H]1C(=O)O` (stereo partly drawn) [Comparative compound, reference compound], for which the IC50 was 14 nM.

Another test addresses T1, Angiotensin Converting Enzyme (ACE). The test is described as follows: ACE inhibitory activity after incubation in rat plasma (Method 2). As to conditions: pre-incubated in rat plasma at 37° C. for 1 hour, dihydrochlorides, read-out: ACE inhibitory activity concentration (IC50). In kind it is biochemical, rabbit. As for the experimental part:
as §1, §2, §3
Mixed to 1800 μl of rat plasma was 200 μl of each test solution, followed by incubation at 37° C. for 1 hour. The resulting mixture was then diluted with a 0.1M Tris-HCl buffer (pH 8.3). The procedure of Method 1 was thereafter followed to measure the ACE inhibitory activity.
As to `CCCCCCC1CC(N[C@@H](CCCCN)C(=O)N2CCC[C@H]2C(=O)O)C(=O)O1` (single isomer, unassigned) [Compound 35, N^α -(2-oxo-5-hexyl-3-tetrahydrofuranyl)-L-lysyl-L-proline], the IC50 worked out at 4.7 nM.
Take `CCCCC1CC(N[C@@H](CCCCN)C(=O)N2CCC[C@H]2C(=O)O)C(=O)O1` (single isomer, unassigned) [Compound 37, N^α -(2-oxo-5-butyl-3-tetrahydrofuranyl)-L-lysyl-L-proline]: the IC50 is 5.7 nM.
On to `CCCCCC1CC(N[C@@H](CCCCN)C(=O)N2CCC[C@H]2C(=O)O)C(=O)O1` (single isomer, unassigned) [Compound 38, N^α -(2-oxo-5-pentyl-3-tetrahydrofuranyl)-L-lysyl-L-proline], for which the IC50 came out at 4 nM.
